Assay results as given in patent publication US7196110B2, “N-substituted tricyclic 3-aminopyrazoles as inhibitors for the treatment of cell proliferative disorders” (Janssen Phamaceutica N.V., priority 2002, dated 2007).

Molecular target: T1, PDGF-receptor beta enzyme comprising the tyrosine kinase domain (Homo sapiens, UniProt P09619)
T1 construct: from amino acid 545 to 1106 of GenBank Access NO: AAA36427
Assay: Inhibition of PDGF-receptor kinase activity (cell-free, PLC1 peptide, 33P Flashplate)
Type: biochemical
Conditions: PDGF-R kinase activity; for inhibition at 10 µM: compound at 10 uM, read-out: Percent Inhibition @ 10 uM; for IC50: read-out: IC50
Outline: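 Recombinant kinase domain (aa 545–1106) phosphorylated a biotinylated PLC1 peptide with 5 μM ATP plus 33P-γ-ATP, in Tris pH 8, MgCl2, Na3VO4 and 1 mM DTT, for 60 min at 30 °C. Retained 33P was counted after washing. IC50 is the concentration halving activity versus no-inhibitor reactions.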

T1 sequence (P09619 545-1106): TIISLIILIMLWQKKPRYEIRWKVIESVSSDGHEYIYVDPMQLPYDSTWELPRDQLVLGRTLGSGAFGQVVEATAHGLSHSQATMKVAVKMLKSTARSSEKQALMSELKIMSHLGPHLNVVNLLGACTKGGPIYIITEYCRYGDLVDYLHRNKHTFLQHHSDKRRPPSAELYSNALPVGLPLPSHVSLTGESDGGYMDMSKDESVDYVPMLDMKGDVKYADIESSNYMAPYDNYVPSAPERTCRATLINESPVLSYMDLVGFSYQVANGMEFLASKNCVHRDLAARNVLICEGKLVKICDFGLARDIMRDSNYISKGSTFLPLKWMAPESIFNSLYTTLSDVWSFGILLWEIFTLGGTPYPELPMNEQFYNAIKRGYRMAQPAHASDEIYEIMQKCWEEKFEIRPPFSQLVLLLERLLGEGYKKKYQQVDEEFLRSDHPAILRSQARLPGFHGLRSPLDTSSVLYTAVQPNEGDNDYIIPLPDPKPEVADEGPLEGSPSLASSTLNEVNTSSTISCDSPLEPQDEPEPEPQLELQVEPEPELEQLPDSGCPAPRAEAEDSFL

Row | inhibition at 10 µM [%] | IC50 [nM] | SMILES
1 | 38 | 3460 | Fc1ccc2c(c1)Cc1c-2n[nH]c1NCc1cc(Cl)cc(Cl)c1 [Compound 304, (3,5-Dichloro-benzyl)-(6-fluoro-2,4-dihydro-indeno[1,2-c]pyrazol-3-yl)-amine]
2 | 87 | 458 | Cc1cccc(CNc2[nH]nc3c2Cc2cc(F)ccc2-3)c1 [Compound 305, (6-Fluoro-2,4-dihydro-indeno[1,2-c]pyrazol-3-yl)-(3-methyl-benzyl)-amine]
3 | 47.5 | 8590 | Cc1ccc(CNc2[nH]nc3c2Cc2cc(F)ccc2-3)cc1Cl [Compound 306, (3-Chloro-4-methyl-benzyl)-(6-fluoro-2,4-dihydroindeno[1,2-c]pyrazol-3-yl)-amine]
4 | 59 | 3400 | COc1ccc(OC)c(CNc2[nH]nc3c2Cc2cc(F)ccc2-3)c1 [Compound 307, (2,5-Dimethoxy-benzyl)-(6-fluoro-2,4-dihydro-indeno[1,2-c]pyrazol-3-yl)-amine]
5 | 14 | 511 | Fc1ccc2c(c1)Cc1c-2n[nH]c1NCc1ccc(F)c(F)c1 [Compound 308, (3,4-Difluoro-benzyl)-(6-fluoro-2,4-dihydro-indeno[1,2-c]pyrazol-3-yl)-amine]
6 | 68.5 | 74.8 | Cc1ccc2c(c1)-c1n[nH]c(Nc3ccc4[nH]ccc4c3)c1C2 [Compound 311, (1H-Indol-5-yl)-(7-methyl-2,4-dihydro-indeno[1,2-c]pyrazol-3-yl)-amine]
7 | 56.5 | 5670 | Cc1ccc2c(c1)-c1n[nH]c(Nc3cc(C(C)(C)C)cc(C(C)(C)C)c3)c1C2 [Compound 312, (3,5-Di-tert-butyl-phenyl)-(7-methyl-2,4-dihydro-indeno[1,2-c]pyrazol-3-yl)-amine]
8 | 62.5 | 3500 | Cc1ccc2c(c1)-c1n[nH]c(NCc3cc(Cl)cc(Cl)c3)c1C2 [Compound 313, (3,5-Dichloro-benzyl)-(7-methyl-2,4-dihydro-indeno[1,2-c]pyrazol-3-yl)-amine]
9 | 76 | 894 | Cc1cccc(CNc2[nH]nc3c2Cc2ccc(C)cc2-3)c1 [Compound 314, (3-Methyl-benzyl)-(7-methyl-2,4-dihydro-indeno[1,2-c]pyrazol-3-yl)-amine]
10 | 17.5 | 1920 | Cc1ccc2c(c1)-c1n[nH]c(NCc3ccc(C)c(Cl)c3)c1C2 [Compound 315, (3-Chloro-4-methyl-benzyl)-(7-methyl-2,4-dihydro-indeno[1,2-c]pyrazol-3-yl)-amine]
11 | 66 | 4910 | COc1ccc(OC)c(CNc2[nH]nc3c2Cc2ccc(C)cc2-3)c1 [Compound 316, (2,5-Dimethoxy-benzyl)-(7-methyl-2,4-dihydro-indeno[1,2-c]pyrazol-3-yl)-amine]
12 | 79 | 1250 | Cc1ccc2c(c1)-c1n[nH]c(NCc3ccc(F)c(F)c3)c1C2 [Compound 317, (3,4-Difluoro-benzyl)-(7-methyl-2,4-dihydro-indeno[1,2-c]pyrazol-3-yl)-amine]
13 | 23 | 34400 | c1ccc(Nc2[nH]nc3c2CCOc2ccccc2-3)cc1 [Compound 318, (4,5-Dihydro-2H-6-oxa-1,2-diaza-benzo[e]azulen-3-yl)-phenyl-amine]
14 | 80.5 | 2200 | COc1cc2c(cc1OC)-c1n[nH]c(Nc3cccc(C(=O)N4CCN(C)CC4)c3)c1C2 [Compound 319, [3-(6,7-Dimethoxy-2,4-dihydro-indeno[1,2-c]pyrazol-3-ylamino)-phenyl]-(4-methyl-piperazin-1-yl)-methanone]
15 | 70.5 | 1960 | COc1cc2c(cc1OC)-c1n[nH]c(NCc3ccc(C)c(C)c3)c1C2 [Compound 320, (6,7-Dimethoxy-2,4-dihydro-indeno[1,2-c]pyrazol-3-yl)-(3,4-dimethyl-benzyl)-amine]
16 | 77 | 7.45 | COc1cc2c(cc1OC)-c1n[nH]c(NCc3c(F)cccc3F)c1C2 [Compound 321, (2,6-Difluoro-benzyl)-(6,7-dimethoxy-2,4-dihydro-indeno[1,2-c]pyrazol-3-yl)-amine]
17 | 22 | 54.7 | COc1cc2c(cc1OC)-c1n[nH]c(NCc3cccc(OC)c3OC)c1C2 [Compound 322, (2,3-Dimethoxy-benzyl)-(6,7-dimethoxy-2,4-dihydro-indeno[1,2-c]pyrazol-3-yl)-amine]
18 | 60.5 | 8710 | COc1cc2c(cc1OC)-c1n[nH]c(NCc3cc(F)ccc3F)c1C2 [Compound 323, (2,5-Difluoro-benzyl)-(6,7-dimethoxy-2,4-dihydro-indeno[1,2-c]pyrazol-3-yl)-amine]
19 | 61 | 96.7 | COc1cc2c(cc1OC)-c1n[nH]c(NCc3ccccc3F)c1C2 [Compound 325, (6,7-Dimethoxy-2,4-dihydro-indeno[1,2-c]pyrazol-3-yl)-(2-fluoro-benzyl)-amine]

Row | inhibition at 10 µM [%] | IC50 [nM] | SMILES
20 | 82 | 267 | COc1cc2c(cc1OC)-c1n[nH]c(NCc3cccc(Cl)c3Cl)c1C2 [Compound 326, (2,3-Dichloro-benzyl)-(6,7-dimethoxy-2,4-dihydro-indeno[1,2-c]pyrazol-3-yl)-amine]
21 | 52 | 10600 | COc1cc2c(cc1OC)-c1n[nH]c(NCc3cccc(F)c3)c1C2 [Compound 327, (6,7-Dimethoxy-2,4-dihydro-indeno[1,2-c]pyrazol-3-yl)-(3-fluoro-benzyl)-amine]
22 | 78.5 | 697 | COc1cc2c(cc1OC)-c1n[nH]c(NCc3ccc(F)cc3F)c1C2 [Compound 328, (2,4-Difluoro-benzyl)-(6,7-dimethoxy-2,4-dihydro-indeno[1,2-c]pyrazol-3-yl)-amine]
23 | 58 | 76.2 | COc1cc2c(cc1OC)-c1n[nH]c(NCc3ccccc3C(F)(F)F)c1C2 [Compound 329, (6,7-Dimethoxy-2,4-dihydro-indeno[1,2-c]pyrazol-3-yl)-(2-trifluoromethyl-benzyl)-amine]
24 | 93 | 189 | COc1cc2c(cc1OC)-c1n[nH]c(NCc3ccc(F)cc3)c1C2 [Compound 331, (6,7-Dimethoxy-2,4-dihydro-indeno[1,2-c]pyrazol-3-yl)-(4-fluoro-benzyl)-amine]
25 | 90 | 372 | COc1ccc(OC)c2c1Cc1c-2n[nH]c1Nc1ccccc1 [Compound 332, (5,8-Dimethoxy-2,4-dihydro-indeno[1,2-c]pyrazol-3-yl)-phenyl-amine]
26 | 73.5 | 2550 | COc1cc2c(cc1OC)C(C)c1c-2n[nH]c1NCc1cccc(Cl)c1 (stereo not shown) [Compound 333, (3-Chloro-benzyl)-(6,7-dimethoxy-4-methyl-2,4-dihydro-indeno[1,2-c]pyrazol-3-yl)-amine]
27 | 100 | 129 | Fc1cccc(Nc2n[nH]c3c2Cc2sccc2-3)c1 [Compound 335, (5,7-Dihydro-1-thia-4,5-diaza-cyclopenta[a]pentalen-6-yl)-(3-fluoro-phenyl)-amine]
28 | 78.5 | 451 | Cc1ccc(Cl)cc1Nc1[nH]nc2c1Cc1ccccc1-2 [Compound 338, (5-Chloro-2-methyl-phenyl)-(2,4-dihydro-indeno[1,2-c]pyrazol-3-yl)-amine]
29 | 92.5 | 105 | Fc1ccc(C(F)(F)F)cc1Nc1[nH]nc2c1Cc1ccccc1-2 [Compound 340, (2,4-Dihydro-indeno[1,2-c]pyrazol-3-yl)-(2-fluoro-5-trifluoromethyl-phenyl)-amine]
30 | 56.5 | 26.7 | COc1ccc(Cl)cc1Nc1[nH]nc2c1Cc1ccccc1-2 [Compound 342, (5-Chloro-2-methoxy-phenyl)-(2,4-dihydro-indeno[1,2-c]pyrazol-3-yl)-amine]
31 | 99.5 | 8.08 | COc1cccc(Nc2[nH]nc3c2Cc2ccccc2-3)c1 [Compound 343]
32 | 100 | 64.7 | CCOc1cc2c(cc1OCC)C(C)c1c-2n[nH]c1Nc1cccc(F)c1 (stereo not shown) [Compound 344, (6,7-Diethoxy-4-methyl-2,4-dihydro-indeno[1,2-c]pyrazol-3-yl)-(3-fluoro-phenyl)-amine]
33 | 88 | 89.3 | CCOc1cc2c(cc1OCC)C(C)c1c-2n[nH]c1Nc1cccnc1 (stereo not shown) [Compound 345, (6,7-Diethoxy-4-methyl-2,4-dihydro-indeno[1,2-c]pyrazol-3-yl)-pyridin-3-yl-amine]
34 | 98 | 73.9 | CCOc1cc2c(cc1OCC)C(C)c1c-2n[nH]c1Nc1cccc(Br)c1 (stereo not shown) [Compound 346, (3-Bromo-phenyl)-(6,7-diethoxy-4-methyl-2,4-dihydro-indeno[1,2-c]pyrazol-3-yl)-amine]
35 | 90.5 | 545 | CCOc1cc2c(cc1OCC)C(C)c1c-2n[nH]c1Nc1ccc(F)c(Cl)c1 (stereo not shown) [Compound 347]
36 | 78 | 80.9 | CCOc1cc2c(cc1OCC)C(C)c1c-2n[nH]c1Nc1ccc(F)cc1 (stereo not shown) [Compound 349, (6,7-Diethoxy-4-methyl-2,4-dihydro-indeno[1,2-c]pyrazol-3-yl)-(4-fluoro-phenyl)-amine]
37 | 91 | 651 | N#Cc1ccc2c(c1)CCc1c-2n[nH]c1Nc1ccccc1 [Compound 350, 3-Phenylamino-4,5-dihydro-2H-benzo[g]indazole-7-carbonitrile]
38 | 93 | 400 | CC(C)Oc1cc2c(cc1OC(C)C)C(C)c1c-2n[nH]c1Nc1cccc(F)c1 (stereo not shown) [Compound 351, (6,7-Diisopropoxy-4-methyl-2,4-dihydro-indeno[1,2-c]pyrazol-3-yl)-(3-fluoro-phenyl)-amine]
